Values joined by “and” are separate entries in the source; they are usually repeats but may differ in a detail not shown here. Equal values may be shown once. Read-outs that look alike come from different tables or passages of the source.
What was measured:
[1] = system: corn; details: in vivo
[2] = system: Capsella bursa-pastoris; test: whole plant or invertebrate; assay type: in vivo; details: 600 h, read-out: weed clearing activity, Capsella bursa-pastoris Postemergence
[3] = system: rice; details: in vivo
[4] = system: rape; test: whole plant or invertebrate; assay type: in vivo; details: 120 h
[5] = system: weeds of the expanded weed killing spectrum; details: in vivo
[6] = system: cotton; details: in vivo
[7] = system: soybean; details: in vivo
[8] = system: rape; details: in vivo
[9] = system: Amaranthus retroflexus; test: whole plant or invertebrate; assay type: in vivo
[10] = system: cockspur grass; test: whole plant or invertebrate; assay type: in vivo; details: Echinochloa crus-galli, 120 h
[11] = system: Eclipta prostrata; test: whole plant or invertebrate; assay type: in vivo
[12] = system: Wheat; details: in vivo
[13] = read-out: weed clearing activity, rape Root (Effect)
[14] = read-out: weed clearing activity, rape Stem (Effect)
[15] = Amaranthus retroflexus, 600 h, read-out: weed clearing activity, Amaranthus retroflexus Postemergence
[16] = read-out: weed clearing activity, cockspur grass Root (Effect)
[17] = read-out: weed clearing activity, cockspur grass Stem (Effect)
[18] = Eclipta prostrata, 600 h, read-out: weed clearing activity, Eclipta prostrata Postemergence

`CC(OC(=O)COc1ccc(Cl)cc1Cl)P1(=O)OCC(C)(C)CO1` (stereo not shown) [Compound 11, 2-(2,4-dichlorophenoxyethylacyloxy)(methyl)methyl-5,5-dimethyl-1,3,2-dioxaphosphorinan-2-one phosphonate] was tested, and the “Inhibitory activity on the crops, Corn” value [1] was 0, the pest or weed control at 37.5 g/ha [2] was 90% and the pest or weed control at 75 g/ha [2] was 100%. The pest or weed control at 150 g/ha [2] was 100%, the “Inhibitory activity on the crops, Rice” value [3] was 10 and the plant injury at 10 µg/g [4, 13] was 99%. The plant injury at 100 µg/g [4, 13] was 99%, the plant injury at 10 µg/g [4, 14] was 88% and the plant injury at 100 µg/g [4, 14] was 92%. For the same molecule, the “Activity of expanded weed killing spectrum, Abutilon theophrasti” value [5] was 70% and 75%, the “Activity of expanded weed killing spectrum, Alligator alternanthera” value [5] was 60% and the “Activity of expanded weed killing spectrum, Cayenne pepper” value [5] was 70% and 75%. For the same molecule, the “Activity of expanded weed killing spectrum, Cucumis sativus” value [5] was 40% and 50%, the “Activity of expanded weed killing spectrum, Pakchoi” value [5] was 85% and the “Activity of expanded weed killing spectrum, Pigweed” value [5] was 85%. For the same molecule, the “Activity of expanded weed killing spectrum, Tomato” value [5] was 70% and 75%, the “Inhibitory activity on the crops, Cotton” value [6] was 30 and the “Inhibitory activity on the crops, Soybean” value [7] was 30. For the same molecule, the “Inhibitory activity on the crops, Rape” value [8] was 40, the pest or weed control at 37.5 g/ha [9, 15] was 70% and the pest or weed control at 75 g/ha [9, 15] was 90%. For the same molecule, the pest or weed control at 150 g/ha [9, 15] was 80%, the “weed clearing activity, Amaranthus retroflexus Postemergence (※)” value ([9]; in vivo) was 100^※ % and the “weed clearing activity, Amaranthus retroflexus Postemergence, value in parentheses” value ([9]; in vivo) was 90(70) %. It also gave a pest or weed control at 10 µg/g [10, 16] of 100%, a pest or weed control at 100 µg/g [10, 16] of 100% and a pest or weed control at 10 µg/g [10, 17] of 55%. It also gave a pest or weed control at 100 µg/g [10, 17] of 57%, a pest or weed control at 37.5 g/ha [11, 18] of 50% and a pest or weed control at 75 g/ha [11, 18] of 85%. The pest or weed control at 150 g/ha [11, 18] was 70%, the “weed clearing activity, Eclipta prostrata Postemergence (※)” value ([11]; in vivo) was 90^※ % and the “weed clearing activity, Eclipta prostrata Postemergence, value in parentheses” value ([11]; in vivo) was 85(70) %. The “Inhibitory activity on the crops, Wheat” value [12] was 0.
